For one experiment, the system named is CTLL-2 cells. Type of experiment: cell-based.
The subject of experiment [1] is BMDCs infected with Influenza A virus. Type of experiment: cell-based.

Turning to DRGWGNGCGLFGKG [FLV IS mono/1], the “proliferation of CTLL-2 cells” value with CTLL-2 cells was “has no effect”. For “GLFGAIAGFIENGWEGCGGEKEKEK [IN F#2 monomer]”, in the experiment on CTLL-2 cells, the “effect of mixing the monomer with the dimeric peptide on the suppressive activity of the dimer” value was “completely removes the suppressive activity of the dimers” and the “proliferation of CTLL-2 cells” value is reported as “has no effect”. Consider “GLFGAIAGFIENGWEGGGGEKEKEK [INF F#2 C17G]”, for which, in experiment [1], the “interferon response to influenza infection in vitro” value is on record as “enhances the interferon response”.
